Measured values taken from patent US20260174790A1, “HUMAN AND MURINE OPRM1 PROMOTERS AND USES THEREOF” (The Trustees of the University of Pennsylvania, priority 2022, published 2026).

Experiments:
MOR+ CeA neurons [1] = experiment: In vivo fiber photometry, hot water hind paw stimulation; set-up: species or system mouse; details: mMORp-GCaMP6f mice, morphine i.p. 10 mg/kg 30 minutes prior to hot water hind paw stimulations
Method: For fiber photometry studies, mice were injected with ˜300 nL of recombinant AAV1-mMORp-GCaMP6f (titer: 3.69×10^12 gc/mL) in the right CeA, followed immediately by the placement of a fiberoptic implant (˜4.7 mm fiber, Doric Lenses) approximately 0.1-0.2 mm above the DV coordinate of the injection site (same as listed above). After setting the fiberoptic in position, MetaBond (Parkel1) and Jet Set dental acrylic (Lang Dental) were applied to the skull of a mouse to rapidly and firmly fix the fiberoptic in place. In brief, after exposure of the skull, the bone was scored with a scalpel blade to provide grooves for the MetaBond to settle into and provide better adhesion. After lowering the fiberoptic into the craniotomy hole, the skull was cleaned with saline and then fully air dried. […] All mice were monitored for up to two days following surgical procedures to ensure the animals' proper recovery.
Hot water hindpaw stimulation test: To evaluate responses to acute, noxious thermal stimulations during fiber photometry testing, we used a hot water hind paw application protocol described previously^102. […] Animals were continuously recorded by a web camera positioned to face the front of the cylinder in which the animal was housed, and all relevant behaviors time-locked to calcium mediated events were scored post-hoc using the video footage. […]

MOR+ CeA neurons [2] = experiment: In vivo fiber photometry, chronic morphine drinking and naloxone precipitated withdrawal; set-up: species or system mouse; details: mMORp-GCaMP6f mice, forced morphine drinking (0.3 mg/ml 3 days, 0.5 mg/ml 4 days), naloxone i.p. 3 mg/kg, 20-minute window
Method: For fiber photometry studies, mice were injected with ˜300 nL of recombinant AAV1-mMORp-GCaMP6f (titer: 3.69×10^12 gc/mL) in the right CeA, followed immediately by the placement of a fiberoptic implant (˜4.7 mm fiber, Doric Lenses) approximately 0.1-0.2 mm above the DV coordinate of the injection site (same as listed above). After setting the fiberoptic in position, MetaBond (Parkel1) and Jet Set dental acrylic (Lang Dental) were applied to the skull of a mouse to rapidly and firmly fix the fiberoptic in place. In brief, after exposure of the skull, the bone was scored with a scalpel blade to provide grooves for the MetaBond to settle into and provide better adhesion. […] All mice were monitored for up to two days following surgical procedures to ensure the animals' proper recovery.
In Vivo Fiber Photometry Recordings and Analysis: Optical recordings of GCaMP6f fluorescence were acquired using an RZ10× fiber photometry detection system (Tucker-Davis Technologies), consisting of a processor with Synapse software (Tucker-Davis Technologies), and optical components (Doric Lenses and ThorLabs). Excitation wavelengths generated by LEDs (460 nm blue light and 405 nm violet light) were relayed through a filtered fluorescence minicube at spectral bandwidths of 460-495 and 405 nm to a pre-bleached mono fiberoptic patch cord connected to the implant on top of each animal's head. […]

spinal MOR+ neurons = experiment: Von Frey filament Up-Down test with chemogenetic inhibition; type: in vivo, mouse; details: intrathecal DCZ 10 pg, mMORp-hM4Di-mCherry injected mice; von Frey and hot plate
Method: For spinal cord chemogenetic studies, mice were injected intraparenchymally at four sites (bilaterally at L4 and L5) with 400 nL of AAV1-mMORp-hM4Di-mCherry (titer: 3.1×10^12 gc/mL) to drive transduction of inhibitory DREADD receptor in spinal cord neurons. Using a modified, minimally invasive method for microinjection in the mouse spinal dorsal horn without laminectomy^91, mice were first anesthetized with isoflurane gas in oxygen (initial dose=4%, maintenance dose=2%), the back shaved and wiped with alcohol and povidone-iodine followed by a 2 cm incision made through the skin, and then placed within a modified Kopf stereotaxic frame to stabilize the T13 and L3 spinal column vertebrae. Next, the spinal column was slightly arched upwards by ˜30°, 0.2 mg/kg lidocaine was administered to the overlying muscle, which was then was gently dissected to expose the interspace above and below the T13 vertebrae, allowing direct access to the L3-5 spinal cord dorsal surface. […]
Von Frey filament touch test: To evaluate mechanical reflexive sensitivity, we used a logarithmically increasing set of 8 von Frey filaments (Stoelting), ranging in gram force from 0.07 to 6.0 grams. […] Using the Up-Down statistical method^100, the 50% withdrawal mechanical threshold scores were calculated for each mouse and then averaged across the experimental groups. […]

Row | Compound | calcium mediated event peak z-score (MOR+ CeA neurons [1]) | average post naloxone calcium events (MOR+ CeA neurons [2]) | analgesic effects on activation of mMORp-hM4Di in spinal cord neurons (spinal MOR+ neurons)
1 | CN1CC[C@]23c4c5ccc(O)c4O[C@H]2[C@@H](O)C=C[C@H]3[C@H]1C5.O=S(=O)(O)O [morphine, morphine sulfate] | 7.6 | 91 | –
2 | CN1CCN(C2=Nc3ccccc3Nc3ccccc32)CC1 [DCZ, deschloroclozapine] | – | – | analgesic effects similar to CNO treatment
